Assay results published in patent US20140255451A1, “Implantable Medical Device Comprising A Macrocyclic Triene Lactone Drug And Minimal Antioxidant Stabilizer And Method Of Fabrication” (ABBOTT CARDIOVASCULAR SYSTEMS INC., priority 2013, published 2014).

Experiment: Decrease in BHT content on a stent due to each manufacturing step (FIG. 1)
Type: physicochemical
Conditions: for reduction of the amount of BHT present in the drug reservoir layer: everolimus/BHT Xience V stent
Description: FIG. 1 is a graph showing the decrease in BHT content on a stent due to each step in the manufacturing process in which a macrocyclic triene lactone and BHT are present.
For example, with regard to the above-mentioned Xience V stent, the process steps for coating the stent include spray coating a drug reservoir layer solution comprising everolimus and BHT onto a stent, which includes a primer layer, then drying the coated stent at an elevated temperature, mounting the stent on a delivery catheter and, finally, sterilizing the mounted stent/catheter. […] FIG. 1 relates to a stent comprising everolimus as the macrocyclic triene lactone and BHT as the antioxidant stabilizer but it is understood that similar if not identical results would be observed if a different macrocyclic triene lactone were used with BHT. Likewise it is expected that similar results would be obtained in terms of the magnitude of the effect at each step of a different antioxidant stabilizer were used.
Calculation of the proper amount of BHT to include with everolimus on a stent to arrive at a finished catheter/stent product that has the desired amount of residual BHT, i.e., about 0.001% to about 0.01% w/w based on the weight of everolimus on the stent, can be accomplished in two ways. At one extreme is stoichiometric reduction in the amount of BHT on the stent as the fabrication steps progress. In this approach, the amount of BHT drops by a constant amount at each fabrication step independent of the starting amount of BHT present. At the other extreme is a percentage drop where amount of the BHT decreases by the same percentage in each fabrication step, likewise independent of starting amount of BHT. Table 1 exemplifies these extremes compared to the known loss of BHT using the current […] stent and everolimus, which contains 0.20% (w/w) of BHT based on the weight of everolimus.
Thus, the fabrication process shown in FIG. 1 affords a drop in the amount of BHT from 0.2% in the starting material down to approximately 0.044% in the finished product. To achieve a final amount of BHT that is between the presently preferred […] and 0.01%, assuming the same proportional decrease in the amount of BHT, a starting amount in the coating solvent would be about 0.0455% (w/w) or less. On the other hand, assuming the same absolute decrease in the amount of BHT present in the finished product (stoichiometric loss), would require something less than about 0.166% (w/w) BHT in the coating solvent. Of course, a BHT reduction process that is neither stoichiometric nor proportional is possible, in which case the starting amount of BHT on the stent would be between the two extremes. It is clear, however, that beginning with about 0.0166% (w/w) BHT based on everolimus would in all instances result in a finished product have less that 0.01% (w/w) of BHT, an amount that would for all intents and purposes result in an insignificant exposure of a patient to the antioxidant.

reduction of the amount of BHT present in the drug reservoir layer (catheter mounting step): about 1%
reduction of the amount of BHT present in the drug reservoir layer (drying step at elevated temperature): about 9%
reduction of the amount of BHT present in the drug reservoir layer (ethylene oxide sterilization step): about 64%
additional reduction of BHT (follow-up ethylene oxide sterilization on the already sterilized catheter/stent): 30%
reduction of the amount of BHT present in the drug reservoir layer (spray coating step): about 61%
Structure (SMILES): Cc1cc(C(C)(C)C)c(O)c(C(C)(C)C)c1 [BHT, butylated hydroxytoluene]
% Antioxidant (w/w, based on everolimus) in finished product (current XV process, 0.20% BHT initially provided in everolimus): approximately 0.044 % (w/w, based on everolimus)
